US20260297081A1, “COMPOUNDS AND METHODS OF TREATING CANCERS” (Cullgen Inc., priority 2023, published 2026)

Key:
Format in all cases: cell-based
[1] = test system: Calu-1 cells; assay: Anti-proliferation (viability) of NSCLC Calu-1 cells, 3 days (Table 7, FIG. 2B); conditions: Homo sapiens, 72 h; Calu-1 cells, 3 days, 10-point serial dilution; read-out: GI IC50 in Calu-1
Summary of the method: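 Cells were exposed to heterobifunctional compounds across a 10-point serial dilution, for 3 days with Calu-1 and 6 days with T47D. A negative control was included that keeps the DDB1 ligand and linker but carries a modified warhead that impairs CDK4 binding.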

[2] = test system: MCF7 cells; assay: Anti-proliferation (viability) of MCF7 cells (Table 7, FIG. 2B); conditions: Homo sapiens, MCF7, MCF7 cells, 3-6 days, 10-point serial dilution; read-out: GI IC50 in MCF-7
[3] = test system: T47D cells; assay: Anti-proliferation (viability) of ER+ breast cancer T47D cells, 6 days (Table 7, FIG. 2B); conditions: Homo sapiens, 144 h; T47D cells, 6 days, 10-point serial dilution; read-out: GI IC50 in T47D
Procedure: To evaluate anti-proliferation activities of heterobifunctional compounds, NSCLC Calu-1 or ER+ breast cancer T47D cells were treated with selected heterobifunctional compounds following a 10-point serial dilution for 3 or 6 days, respectively.
To verify that heterobifunctional compound-mediated degradation is dependent on the binding to CDK4-cyclin D complex, a negative control compound, CPD-143, which is derived from active heterobifunctional compound CPD-10 was designed. CPD-143 bears the same DDB1 ligand and linker as CPD-10 but with a modified warhead to impair the binding of the control compound to CDK4.

[4] = target: T1, CDK4 (Homo sapiens, UniProt P11802+Q16531); assay: CDK4 percentage degradation in Calu-1 cells (Table 6); design: Cells that express cyclin D1-3 and CDK4/6 proteins were treated with heterobifunctional compounds; endogenous in cells; host or cells: Calu-1; conditions: 16 hours; for inhibition at 0.04 µM: 40 nM; for inhibition at 0.2 µM: 200 nM
Summary of the method: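 Calu-1 cells exposed to heterobifunctional compounds at 40 nM or 200 nM for 16 h. Cyclin D1 and CDK4 levels measured by Western blot of RIPA lysates (BCA-normalised loading), bands quantified by densitometry and expressed as percentage degradation.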
Target sequence in this assay (P11802 2-303 limits assumed): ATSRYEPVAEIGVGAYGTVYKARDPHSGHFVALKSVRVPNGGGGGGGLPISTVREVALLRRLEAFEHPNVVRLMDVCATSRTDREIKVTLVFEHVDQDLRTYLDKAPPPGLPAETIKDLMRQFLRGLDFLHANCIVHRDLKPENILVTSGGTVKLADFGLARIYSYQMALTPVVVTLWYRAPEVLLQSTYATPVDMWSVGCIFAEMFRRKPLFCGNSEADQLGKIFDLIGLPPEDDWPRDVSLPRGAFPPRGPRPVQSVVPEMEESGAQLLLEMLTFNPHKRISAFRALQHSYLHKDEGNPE
Target sequence in this assay (P24385 whole entry partner): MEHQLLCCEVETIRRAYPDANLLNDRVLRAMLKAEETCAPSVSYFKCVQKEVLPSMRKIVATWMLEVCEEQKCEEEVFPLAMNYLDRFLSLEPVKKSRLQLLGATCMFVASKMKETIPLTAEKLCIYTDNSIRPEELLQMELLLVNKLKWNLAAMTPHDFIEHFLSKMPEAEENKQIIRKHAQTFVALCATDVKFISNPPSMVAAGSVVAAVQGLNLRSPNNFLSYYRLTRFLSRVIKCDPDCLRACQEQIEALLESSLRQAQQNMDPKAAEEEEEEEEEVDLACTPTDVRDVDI
Target sequence in this assay (Q16531 2-1140 limits assumed): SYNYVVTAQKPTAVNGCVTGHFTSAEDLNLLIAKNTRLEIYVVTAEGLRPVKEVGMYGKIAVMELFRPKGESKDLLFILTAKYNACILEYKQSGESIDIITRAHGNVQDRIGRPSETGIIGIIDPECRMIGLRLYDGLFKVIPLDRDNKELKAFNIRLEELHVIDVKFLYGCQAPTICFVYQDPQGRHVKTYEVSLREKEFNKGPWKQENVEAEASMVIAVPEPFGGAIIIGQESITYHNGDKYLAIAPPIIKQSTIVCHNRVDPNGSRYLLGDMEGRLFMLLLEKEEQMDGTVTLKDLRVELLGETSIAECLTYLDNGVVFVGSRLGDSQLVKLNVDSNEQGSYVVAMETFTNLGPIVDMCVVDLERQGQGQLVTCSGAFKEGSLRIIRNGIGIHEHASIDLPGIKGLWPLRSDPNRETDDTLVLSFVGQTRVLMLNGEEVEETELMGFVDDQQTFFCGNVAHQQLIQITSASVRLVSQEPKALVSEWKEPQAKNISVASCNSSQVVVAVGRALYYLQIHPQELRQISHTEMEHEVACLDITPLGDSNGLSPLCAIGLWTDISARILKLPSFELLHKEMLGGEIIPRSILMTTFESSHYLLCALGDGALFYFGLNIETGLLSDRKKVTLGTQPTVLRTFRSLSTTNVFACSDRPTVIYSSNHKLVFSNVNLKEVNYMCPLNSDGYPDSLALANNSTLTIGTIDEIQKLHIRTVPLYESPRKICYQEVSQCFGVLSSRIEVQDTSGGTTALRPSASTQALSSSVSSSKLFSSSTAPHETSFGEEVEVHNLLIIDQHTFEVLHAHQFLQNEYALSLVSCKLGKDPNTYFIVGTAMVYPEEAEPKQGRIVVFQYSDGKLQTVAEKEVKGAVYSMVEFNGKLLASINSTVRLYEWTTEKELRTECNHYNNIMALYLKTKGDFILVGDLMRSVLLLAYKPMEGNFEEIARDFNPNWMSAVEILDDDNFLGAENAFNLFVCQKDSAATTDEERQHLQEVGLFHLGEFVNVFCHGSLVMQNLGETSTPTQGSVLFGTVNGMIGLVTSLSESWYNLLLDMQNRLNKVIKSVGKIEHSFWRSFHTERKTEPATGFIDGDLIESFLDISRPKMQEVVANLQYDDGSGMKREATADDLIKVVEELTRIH

[5] = target: T1, CDK4; assay: HiBiT detection of HiBiT-tagged CDK4 protein level in MCF7 cells, 16 hours (Table 8); design: expressed in transfected cells; host or cells: MCF7; conditions: MCF7 cells stably expressing HiBiT tagged target proteins
Procedure: HiBiT detection system quantitatively measures total amounts of HiBiT-tagged proteins using a luminescent based method. MCF7 cells stably expressing HiBiT tagged target proteins were treated with heterobifunctional compounds at indicated concentrations for 16 hours, then lysed with Nano-Glo HiBiT Lytic detection reagents.
Target sequence in this assay (P11802 whole entry): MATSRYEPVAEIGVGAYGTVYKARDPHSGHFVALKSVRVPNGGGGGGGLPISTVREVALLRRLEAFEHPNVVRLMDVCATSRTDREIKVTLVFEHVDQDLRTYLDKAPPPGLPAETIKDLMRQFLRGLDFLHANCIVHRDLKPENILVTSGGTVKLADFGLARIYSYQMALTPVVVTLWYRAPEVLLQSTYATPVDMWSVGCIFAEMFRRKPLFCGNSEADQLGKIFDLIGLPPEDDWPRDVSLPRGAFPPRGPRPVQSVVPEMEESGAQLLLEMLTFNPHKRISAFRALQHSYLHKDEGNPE
Target sequence in this assay (P24385 whole entry partner): as the sequence (P24385 whole entry partner) above
Target sequence in this assay (Q16531 2-1140 limits assumed): as the sequence (Q16531 2-1140 limits assumed) above

CNc1ccc(C(=O)Nc2ccc(N(C)C)nn2)c(NCCCCCNC(=O)CN2CCN(c3ccc(Nc4ncc5c(C)c(C(C)=O)c(=O)n(C6CCCC6)c5n4)nc3)CC2)n1 [CPD-5, 2-((5-(2-(4-(6-((6-acetyl-8-cyclopentyl-5-methyl-7-oxo-7,8-dihydropyrido[2,3-d]pyrimidin-2-yl)amino)pyridin-3-yl)piperazin-1-yl)acetamido)pentyl)amino)-N-(6-(dimethylamino)pyridazin-3-yl)-6-(methylamino)nicotinamide]
IC50 [1]: ≤ 0.01 µM | IC50 [2]: < 0.05 µM | IC50 [3]: ≤ 0.05 µM | inhibition at 0.04 µM [4]: 50 to 80%

CC(=O)c1c(C)c2cnc(Nc3ccc(N4CCN(CC(=O)NCCCCCNc5nc(C#N)ccc5C(=O)Nc5ccc(N(C)C)nn5)CC4)cn3)nc2n(C2CCCC2)c1=O [CPD-28, 2-((5-(2-(4-(6-((6-Acetyl-8-cyclopentyl-5-methyl-7-oxo-7,8-dihydropyrido[2,3-d]pyrimidin-2-yl)amino)pyridin-3-yl)piperazin-1-yl)acetamido)pentyl)amino)-6-cyano-N-(6-(dimethylamino)pyridazin-3-yl)nicotinamide]
IC50 [1]: 0.01 to 0.05 µM | IC50 [3]: ≤ 0.05 µM | inhibition at 0.04 µM [4]: 50 to 80% | inhibition at 0.2 µM [4]: 50 to 80%

CNc1ccc(C(=O)Nc2ccc(N(C)C)nn2)c(NC(C)CCCCNC(=O)CN2CCN(c3ccc(Nc4ncc5c(C)c(C(C)=O)c(=O)n(C6CCCC6)c5n4)nc3)CC2)n1 (stereo not drawn) [CPD-29, 2-((6-(2-(4-(6-((6-Acetyl-8-cyclopentyl-5-methyl-7-oxo-7,8-dihydropyrido[2,3-d]pyrimidin-2-yl)amino)pyridin-3-yl)piperazin-1-yl)acetamido)hexan-2-yl)amino)-N-(6-(dimethylamino)pyridazin-3-yl)-6-(methylamino)nicotinamide]
IC50 [1]: 0.01 to 0.05 µM | IC50 [3]: 0.05 to 0.1 µM | inhibition at 0.04 µM [4]: 50 to 80% | inhibition at 0.2 µM [4]: > 80%

CNc1ccc(C(=O)Nc2ccc(N(C)C)nn2)c(NC2CC(CCNC(=O)N3CCN(c4ccc(Nc5ncc6c(C)c(C(C)=O)c(=O)n(C7CCCC7)c6n5)nc4)CC3)C2)n1 (stereo not drawn) [CPD-35, 4-(6-((6-Acetyl-8-cyclopentyl-5-methyl-7-oxo-7,8-dihydropyrido[2,3-d]pyrimidin-2-yl)amino)pyridin-3-yl)-N-(2-(3-((3-((6-(dimethylamino)pyridazin-3-yl)carbamoyl)-6-(methylamino)pyridin-2-yl)amino)cyclobutyl)ethyl)piperazine-1-carboxamide]
IC50 [1]: 0.01 to 0.05 µM | IC50 [3]: 0.05 to 0.1 µM | inhibition at 0.04 µM [4]: 50 to 80% | inhibition at 0.2 µM [4]: 50 to 80%

CNc1ccc(C(=O)Nc2ccc(N(C)C)nn2)c(NCCCCNC(=O)CCN2CCN(c3ccc(Nc4ncc5c(C)c(C(C)=O)c(=O)n(C6CCCC6)c5n4)nc3)CC2)n1 [CPD-37, 2-((4-(3-(4-(6-((6-acetyl-8-cyclopentyl-5-methyl-7-oxo-7,8-dihydropyrido[2,3-d]pyrimidin-2-yl)amino)pyridin-3-yl)piperazin-1-yl)propanamido)butyl)amino)-N-(6-(dimethylamino)pyridazin-3-yl)-6-(methylamino)nicotinamide]
IC50 [1]: 0.01 to 0.05 µM | IC50 [3]: ≥ 0.1 µM | inhibition at 0.04 µM [4]: 50 to 80% | inhibition at 0.2 µM [4]: 50 to 80%

CNc1ccc(C(=O)Nc2ccc(C)c(C3CC3)n2)c(NC2CC3(CC(NC(=O)CN4CCN(c5ccc(Nc6ncc7c(C)c(C(C)=O)c(=O)n(C8CCCC8)c7n6)nc5)CC4)C3)C2)n1 (stereo not drawn) [CPD-57, 2-((6-(2-(4-(6-((6-Acetyl-8-cyclopentyl-5-methyl-7-oxo-7,8-dihydropyrido[2,3-d]pyrimidin-2-yl)amino)pyridin-3-yl)piperazin-1-yl)acetamido)spiro[3.3]heptan-2-yl)amino)-N-(6-cyclopropyl-5-methylpyridin-2-yl)-6-(methylamino)nicotinamide]
IC50 [1]: 0.01 to 0.05 µM | IC50 [3]: 0.05 to 0.1 µM | inhibition at 0.04 µM [4]: 30 to 50% | inhibition at 0.2 µM [4]: > 80%

CNc1ccc(C(=O)Nc2cccc(C)n2)c(NC2CC3(CC(NC(=O)CN4CCN(c5ccc(Nc6ncc7c(C)c(C(C)=O)c(=O)n(C8CCCC8)c7n6)nc5)CC4)C3)C2)n1 (stereo not drawn) [CPD-75, 2-((6-(2-(4-(6-((6-Acetyl-8-cyclopentyl-5-methyl-7-oxo-7,8-dihydropyrido[2,3-d]pyrimidin-2-yl)amino)pyridin-3-yl)piperazin-1-yl)acetamido)spiro[3.3]heptan-2-yl)amino)-6-(methylamino)-N-(6-methylpyridin-2-yl)nicotinamide]
IC50 [1]: 0.01 to 0.05 µM | IC50 [3]: ≤ 0.05 µM | inhibition at 0.04 µM [4]: 30 to 50% | inhibition at 0.2 µM [4]: 50 to 80%

CNc1ccc(C(=O)Nc2ccc(N(C)C)nn2)c(NC2CC(CNC(=O)CCN3CCN(c4ccc(Nc5ncc6c(C)c(C(C)=O)c(=O)n(C7CCCC7)c6n5)nc4)CC3)C2)n1 (stereo not drawn) [CPD-80, 2-((3-((3-(4-(6-((6-Acetyl-8-cyclopentyl-5-methyl-7-oxo-7,8-dihydropyrido[2,3-d]pyrimidin-2-yl)amino)pyridin-3-yl)piperazin-1-yl)propanamido)methyl)cyclobutyl)amino)-N-(6-(dimethylamino)pyridazin-3-yl)-6-(methylamino)nicotinamide]
IC50 [1]: ≤ 0.01 µM | IC50 [3]: ≤ 0.05 µM | inhibition at 0.04 µM [4]: 50 to 80% | inhibition at 0.2 µM [4]: 50 to 80%

CNc1ccc(C(=O)Nc2ccc(N(C)C)nn2)c(NC2CC3(CC(CNC(=O)N4CCN(c5ccc(Nc6ncc7c(C)c(C(C)=O)c(=O)n(C8CCCC8)c7n6)nc5)CC4)C3)C2)n1 (stereo not drawn) [CPD-81, 4-(6-((6-Acetyl-8-cyclopentyl-5-methyl-7-oxo-7,8-dihydropyrido[2,3-d]pyrimidin-2-yl)amino)pyridin-3-yl)-N-((6-((3-((6-(dimethylamino)pyridazin-3-yl)carbamoyl)-6-(methylamino)pyridin-2-yl)amino)spiro[3.3]heptan-2-yl)methyl)piperazine-1-carboxamide]
IC50 [1]: 0.01 to 0.05 µM | IC50 [3]: 0.05 to 0.1 µM | inhibition at 0.04 µM [4]: 30 to 50% | inhibition at 0.2 µM [4]: 30 to 50%

CC(=O)c1c(C)c2cnc(Nc3ccc(N4CCN(CC(=O)NCCCCCNc5nc(NC(C)(C)C)ccc5C(=O)Nc5ccc(N(C)C)nn5)CC4)cn3)nc2n(C2CCCC2)c1=O [CPD-85, 2-((5-(2-(4-(6-((6-Acetyl-8-cyclopentyl-5-methyl-7-oxo-7,8-dihydropyrido[2,3-d]pyrimidin-2-yl)amino)pyridin-3-yl)piperazin-1-yl)acetamido)pentyl)amino)-6-(tert-butylamino)-N-(6-(dimethylamino)pyridazin-3-yl)nicotinamide]
IC50 [1]: ≤ 0.01 µM | IC50 [3]: 0.05 to 0.1 µM | inhibition at 0.04 µM [4]: < 30% | inhibition at 0.2 µM [4]: 50 to 80%

CC(=O)c1c(C)c2cnc(Nc3ccc(N4CCN(CC(=O)NC5CC6(C5)CC(Nc5nc(NC(C)C)ccc5C(=O)Nc5cccc(C7CC7)n5)C6)CC4)cn3)nc2n(C2CCCC2)c1=O (stereo not drawn) [CPD-139, 2-((6-(2-(4-(6-((6-Acetyl-8-cyclopentyl-5-methyl-7-oxo-7,8-dihydropyrido[2,3-d]pyrimidin-2-yl)amino)pyridin-3-yl)piperazin-1-yl)acetamido)spiro[3.3]heptan-2-yl)amino)-N-(6-cyclopropylpyridin-2-yl)-6-(isopropylamino)nicotinamide]
IC50 [1]: ≤ 0.01 µM | IC50 [3]: ≤ 0.05 µM | inhibition at 0.04 µM [4]: 50 to 80% | inhibition at 0.2 µM [4]: 50 to 80%

CC(=O)c1c(C)c2cnc(Nc3ccc(N4CCN(CC(=O)NC5CC6(C5)CC(Nc5nc(NC(C)C)ccc5C(=O)Nc5cn(C)c(C7CC7)n5)C6)CC4)cn3)nc2n(C2CCCC2)c1=O (stereo not drawn) [CPD-222, 2-((6-(2-(4-(6-((6-acetyl-8-cyclopentyl-5-methyl-7-oxo-7,8-dihydropyrido[2,3-d]pyrimidin-2-yl)amino)pyridin-3-yl)piperazin-1-yl)acetamido)spiro[3.3]heptan-2-yl)amino)-N-(2-cyclopropyl-1-methyl-1H-imidazol-4-yl)-6-(isopropylamino)nicotinamide]
IC50 [2]: 0.05 to 0.1 µM | IC50 [3]: ≤ 0.05 µM | inhibition at 0.04 µM [4]: 50 to 80% | inhibition at 0.2 µM [4]: 50 to 80%

CC(=O)c1c(C)c2cnc(Nc3ccc(N4CCN(CC(=O)NC5CC6(C5)CC(Nc5nc(NC(C)C)ccc5C(=O)Nc5cc(C)n(C)n5)C6)CC4)cn3)nc2n(C2CCCC2)c1=O (stereo not drawn) [CPD-253, 2-((6-(2-(4-(6-((6-acetyl-8-cyclopentyl-5-methyl-7-oxo-7,8-dihydropyrido[2,3-d]pyrimidin-2-yl)amino)pyridin-3-yl)piperazin-1-yl)acetamido)spiro[3.3]heptan-2-yl)amino)-N-(1,5-dimethyl-1H-pyrazol-3-yl)-6-(isopropylamino)nicotinamide]
IC50 [2]: < 0.05 µM | IC50 [3]: ≥ 0.1 µM | activity at 0.01 µM ([5]; 10 nM, read-out: % CDK4 Relative Level (10 nM)): > 85% | activity at 0.1 µM ([5]; 100 nM, read-out: % CDK4 Relative Level (100 nM)): 55 to 85% | inhibition at 0.04 µM [4]: < 30% | inhibition at 0.2 µM [4]: < 30%
